Reference: patent publication US20050124562A1, “Bis-quinazoline compounds for the treatment of bacterial infections” (priority 2003, published 2005)
In brackets after ≈: the same amount, converted by molar mass.

System: S. aureus, E. faecalis, S. pyogenes and S. pneumoniae
Experiment: Broth microdilution MIC (NCCLS), gram-positive strains
Type: cell-based
Conditions: not given
Method: Representative bis-quinazolines were tested for antibacterial activity using the […] microdilution method to determine their minimum inhibitory concentrations (MICs). All compounds were tested using standard methods in accordance with NCCLS guidelines (National Committee for Clinical Laboratory Standards. 2003. Methods for dilution antimicrobial susceptibility testing for bacteria that grow aerobically. Approved Standard M-7 A-6, NCCLS, Wayne, Pa.). The bacterial strains used in the susceptibility tests were obtained from the American Type Culture Collection (ATCC) and included resistant phenotypes such as oxacillin-resistant S. aureus (ORSA) and vancomycin-resistant enterococci (VRE). The minimum bactericidal concentrations (MBCs) were determined for selected organisms. The effect of protein binding on the antibacterial activity of representative bis-quinazolines were determined by conducting MIC tests in the presence of human serum.

| Compound | MIC [µg/mL] |
| --- | --- |
| COc1ccc2nc(Nc3nc(O)c4cccc(OC)c4n3)nc(C)c2c1 [Example 10, 8-Methoxy-2-(6-methoxy-4-methyl-quinazolin-2-ylamino)-quinazolin-4-ol] | 0.06 to 16 (≈ 0.165 to 44 µM) |
| COc1cc(OC)c2nc(Nc3nc(O)c4cccc(OC)c4n3)nc(C)c2c1 [Example 11, 2-(6,8-Dimethoxy-4-methyl-quinazolin-2-ylamino)-8-methoxy-quinazolin-4-ol] | 0.06 to 16 (≈ 0.153 to 40.7 µM) |
| CCOc1cccc2nc(Nc3nc(C)c4cc(OC)c(OC)cc4n3)nc(O)c12 [Example 13, 2-(6,7-Dimethoxy-4-methyl-quinazolin-2-ylamino)-5-ethoxy-quinazolin-4-ol] | 0.06 to 16 (≈ 0.147 to 39.3 µM) |
| Cc1nc(Nc2nc(O)c3ccccc3n2)nc2cc3c(cc12)OCO3 [Example 15, 2-(8-Methyl-[1,3]dioxolo[4,5-g]quinazolin-6-ylamino)-quinazolin-4-ol] | 0.06 to 16 (≈ 0.173 to 46.1 µM) |
| Cc1nc(Nc2nc(O)c3ccccc3n2)nc2ccc(O)cc12 [Example 16, 2-(4-Hydroxy-quinazolin-2-ylamino)-4-methyl-quinazolin-6-ol] | 0.06 to 16 (≈ 0.188 to 50.1 µM) |
| COc1ccc2nc(Nc3nc(O)c4cccc(C)c4n3)ncc2c1 [Example 20, 2-(6-Methoxy-quinazolin-2-ylamino)-8-methyl-quinazolin-4-ol] | 0.06 to 16 (≈ 0.18 to 48 µM) |
| COc1cccc2c(C)nc(Nc3nc(O)c4cc(C)cc(C)c4n3)nc12 [Example 48, 2-(8-Methoxy-4-methyl-quinazolin-2-ylamino)-6,8-dimethyl-quinazolin-4-ol] | 0.06 to 16 (≈ 0.166 to 44.3 µM) |
| CCc1nc(Nc2nc(O)c3ccccc3n2)nc2ccc(OC)cc12 [Example 49, 2-(4-Ethyl-6-methoxy-quinazolin-2-ylamino)-quinazolin-4-ol] | 0.06 to 16 (≈ 0.173 to 46.1 µM) |
| COc1cccc2c(C)nc(Nc3nc(O)c4cccc(C)c4n3)nc12 [Example 51, 2-(8-Methoxy-4-methyl-quinazolin-2-ylamino)-8-methyl-quinazolin-4-ol] | 0.06 to 16 (≈ 0.173 to 46.1 µM) |
| COc1cc2nc(Nc3nc(O)c4ccccc4n3)nc(C)c2cc1OC [Example 52, 2-(6,7-Dimethoxy-4-methyl-quinazolin-2-ylamino)-quinazolin-4-ol] | 0.06 to 16 (≈ 0.165 to 44 µM) |
| COc1cccc2c(C)nc(Nc3nc(O)c4ccccc4n3)nc12 [Example 58, 2-(8-Methoxy-4-methyl-quinazolin-2-ylamino)-quinazolin-4-ol] | 0.06 to 16 (≈ 0.18 to 48 µM) |
| CCOc1cccc2c(C)nc(Nc3nc(O)c4ccccc4n3)nc12 [Example 59, 2-(8-Ethoxy-4-methyl-quinazolin-2-ylamino)-quinazolin-4-ol] | 0.06 to 16 (≈ 0.173 to 46.1 µM) |
| COc1ccc2nc(Nc3nc(O)c4cc(O)ccc4n3)nc(C)c2c1 [Example 60, 2-(6-Methoxy-4-methyl-quinazolin-2-ylamino)-quinazoline-4,6-diol] | 0.06 to 16 (≈ 0.172 to 45.8 µM) |
| COc1ccc2nc(Nc3nc(O)c4cc(OC)ccc4n3)nc(C)c2c1 [Example 61, 6-Methoxy-2-(6-methoxy-4-methyl-quinazolin-2-ylamino)-quinazolin-4-ol] | 0.06 to 16 (≈ 0.165 to 44 µM) |
| COc1ccc2nc(Nc3nc(O)c4cc(OC)c(OC)cc4n3)nc(C)c2c1 [Example 62, 6,7-Dimethoxy-2-(6-methoxy-4-methyl-quinazolin-2-ylamino)-quinazolin-4-ol] | 0.06 to 16 (≈ 0.153 to 40.7 µM) |
| COc1ccc2nc(Nc3nc(O)c4cc(C)ccc4n3)nc(C)c2c1 [Example 63, 2-(6-Methoxy-4-methyl-quinazolin-2-ylamino)-6-methyl-quinazolin-4-ol] | 0.06 to 16 (≈ 0.173 to 46.1 µM) |
| COc1ccc2nc(Nc3nc(O)c4cccc(C)c4n3)nc(C)c2c1 [Example 65, 2-(6-Methoxy-4-methyl-quinazolin-2-ylamino)-8-methyl-quinazolin-4-ol] | 0.06 to 16 (≈ 0.173 to 46.1 µM) |

Same assay, conditions: range against some strains of S. aureus, E. faecalis, S. pyogenes and S. pneumoniae; read-out: MIC

| Compound | MIC [µg/mL] |
| --- | --- |
| COc1ccc2nc(Nc3nc(O)c4cc(N)cc(C)c4n3)nc(C)c2c1.O=C(O)C(F)(F)F [Example 22, 6-Amino-2-(6-methoxy-4-methyl-quinazolin-2-ylamino)-8-methyl-quinazolin-4-ol trifluoroacetate salt] | 0.06 to 16 |
| COc1ccc([N+](=O)[O-])c2c(C)nc(Nc3nc(O)c4ccccc4n3)nc12.O=C(O)C(F)(F)F [Example 26, 2-(8-Methoxy-4-methyl-5-nitro-quinazolin-2-ylamino)-quinazolin-4-ol trifluoroacetate salt] | 0.06 to 16 |
| COc1ccc(OC)c2c(C)nc(Nc3nc(O)c4ccccc4n3)nc12.O=C(O)C(F)(F)F [Example 27, 2-(5,8-Dimethoxy-4-methyl-quinazolin-2-ylamino)-quinazolin-4-ol trifluoroacetate salt] | 0.06 to 16 |
| COc1ccc([N+](=O)[O-])c2c(C)nc(Nc3nc(O)c4cc(C)cc(C)c4n3)nc12.O=C(O)C(F)(F)F [Example 30, 2-(8-Methoxy-4-methyl-5-nitro-quinazolin-2-ylamino)-6,8-dimethyl-quinazolin-4-ol, trifluoroacetate salt] | 0.06 to 16 |
| COc1cc2c(C)nc(Nc3nc(O)c4ccccc4n3)nc2cc1F.O=C(O)C(F)(F)F [Example 32, 2-(7-Fluoro-6-methoxy-4-methyl-quinazolin-2-ylamino)-quinazolin-4-ol trifluoroacetate salt] | 0.06 to 16 |
| CSc1ccc2nc(Nc3nc(O)c4ccccc4n3)nc(C)c2c1.O=C(O)C(F)(F)F [Example 35, 2-(4-Methyl-6-methylsulfanyl-quinazolin-2-ylamino)-quinazolin-4-ol trifluoroacetate salt] | 0.06 to 16 |
| COc1ccc2nc(Nc3nc(O)c4c(OC)cccc4n3)nc(C)c2c1.O=C(O)C(F)(F)F [Example 37, 5-Methoxy-2-(6-methoxy-4-methyl-quinazolin-2-ylamino)-quinazolin-4-ol trifluoroacetate salt] | 0.06 to 16 |
| COc1cc2nc(Nc3nc(O)c4cc(C)cc(C)c4n3)nc(C)c2cc1OC.O=C(O)C(F)(F)F [Example 41, 2-(6,7-Dimethoxy-4-methyl-quinazolin-2-ylamino)-6,8-dimethyl-quinazolin-4-ol trifluoroacetate salt] | 0.06 to 16 |
| COc1ccc(OC)c2c(C)nc(Nc3nc(O)c4cc(C)cc(C)c4n3)nc12.O=C(O)C(F)(F)F [Example 43, 2-(5,8-Dimethoxy-4-methyl-quinazolin-2-ylamino)-6,8-dimethyl-quinazolin-4-ol trifluoroacetate salt] | 0.06 to 16 |
| CC(=O)O.COc1cc2c(C)nc(Nc3nc(O)c4cc(C)cc(C)c4n3)nc2cc1F [Example 44, 2-(7-Fluoro-6-methoxy-4-methyl-quinazolin-2-ylamino)-6,8-dimethyl-quinazolin-4-ol acetate salt] | 0.06 to 16 |
| COc1ccc2nc(Nc3nc(O)c4ccccc4n3)nc(CF)c2c1.O=C(O)C(F)(F)F [Example 45, 2-(4-Fluoromethyl-6-methoxy-quinazolin-2-ylamino)-quinazolin-4-ol trifluoroacetate salt] | 0.06 to 16 |
| COc1cc(OC)c2nc(Nc3nc(O)c4cccc(C)c4n3)nc(C)c2c1.O=C(O)C(F)(F)F [Example 46, 2-(6,8-Dimethoxy-4-methyl-quinazolin-2-ylamino)-8-methyl-quinazolin-4-ol trifluoroacetate salt] | 0.06 to 16 |
| COc1ccc2nc(Nc3nc(O)c4cc(N)ccc4n3)nc(C)c2c1.O=C(O)C(F)(F)F [Example 47, 6-Amino-2-(6-methoxy-4-methyl-quinazolin-2-ylamino)-quinazolin-4-ol trifluoroacetate salt] | 0.06 to 16 |
| COc1cc(OC)c2nc(Nc3nc(O)c4cc([N+](=O)[O-])cc(C)c4n3)nc(C)c2c1.O=C(O)C(F)(F)F [Example 67, 2-(6,8-Dimethoxy-4-methyl-quinazolin-2-ylamino)-8-methyl-6-nitro-quinazolin-4-ol trifluoroacetate salt] | 0.06 to 16 |
| COc1cccc2c(C)nc(Nc3nc(O)c4cc([N+](=O)[O-])cc(C)c4n3)nc12.O=C(O)C(F)(F)F [Example 68, 2-(8-Methoxy-4-methyl-quinazolin-2-ylamino)-8-methyl-6-nitro-quinazolin-4-ol trifluoroacetate salt] | 0.06 to 16 |
| COCCOc1ccc2nc(Nc3nc(O)c4cc([N+](=O)[O-])cc(C)c4n3)nc(C)c2c1.O=C(O)C(F)(F)F [Example 69, 2-[6-(2-Methoxy-ethoxy)-4-methyl-quinazolin-2-ylamino]-8-methyl-6-nitro-quinazolin-4-ol trifluoroacetate salt] | 0.06 to 16 |
| COCCOc1ccc2nc(Nc3nc(O)c4cc(N)cc(C)c4n3)nc(C)c2c1.O=C(O)C(F)(F)F [Example 70, 6-Amino-2-[6-(2-methoxy-ethoxy)-4-methyl-quinazolin-2-ylamino]-8-methyl-quinazolin-4-ol trifluoroacetate salt] | 0.06 to 16 |
| COc1ccc2nc(Nc3nc(O)c4cccc(O)c4n3)nc(C)c2c1.O=C(O)C(F)(F)F [Example 71, 2-(6-Methoxy-4-methyl-quinazolin-2-ylamino)-quinazoline-4,8-diol trifluoroacetate salt] | 0.06 to 16 |
| COc1cccc2c(C)nc(Nc3nc(O)c4cccc(O)c4n3)nc12.O=C(O)C(F)(F)F [Example 72, 2-(8-Methoxy-4-methyl-quinazolin-2-ylamino)-quinazoline-4,8-diol trifluoroacetate salt] | 0.06 to 16 |
| COc1ccc2c(C)nc(Nc3nc(O)c4cc(C)cc(C)c4n3)nc2c1OC.O=C(O)C(F)(F)F [Example 73, 2-(7,8-Dimethoxy-4-methyl-quinazolin-2-ylamino)-6,8-dimethyl-quinazolin-4-ol trifluoroacetate salt] | 0.06 to 16 |
| COc1ccc2c(C)nc(Nc3nc(O)c4ccccc4n3)nc2c1OC.O=C(O)C(F)(F)F [Example 74, 2-(7,8-Dimethoxy-4-methyl-quinazolin-2-ylamino)-quinazolin-4-ol trifluoroacetate salt] | 0.06 to 16 |
